# Literature values, collected in patent US9352019B2, “Using heat shock proteins to improve the therapeutic benefit of a non-vaccine treatment modality” (University of Connecticut Health Center, priority 2002, dated 2016).
# Structures can show the parent of a compound that is named as a salt.
# Tested on: CML
# Settings: Gleevec alone; Druker et al., 2002
smiles,measurement,value
"Cc1ccc(NC(=O)c2ccc(CN3CCN(C)CC3)cc2)cc1Nc1nccc(-c2cccnc2)n1 [Gleevec™, imatinib mesylate]",patients achieving responses using these same criteria,less than 10% of patients
